Holding throughout (format): in vivo
For assay [1], the system named is Myzus persicae. The assay can be described thus: slide-dip mortality test on aphids (Myzus persicae). Particulars: 24 h, read-out: Corrected mortality (%) Myzus persicae. How it is done:
(§1) Inhibitory activities of the steroidal piperidone derivatives listed in Tables 1 and 2 against Myzus persicae, Aphis citricola, Brevicoryne brassicae, and wheat aphids were determined through slide-dip method. Specific process: A specified amount of a compound to be tested was accurately weighed and dissolved with acetone as a solvent, and solutions with concentrations of 50 μg/mL and 75 μg/mL were each prepared with a 0.1% Tween-80 aqueous solution, allowed to stand at room temperature for 0.5 h until the sample was completely dissolved, and stored for later use. Then, adult aphids were fixed with double-sided tape on slides with a small brush. One end of the slide with the aphids was immersed in the test solutions for 5 seconds. The excess liquid was absorbed with absorbent paper, and the mortality rates were calculated 24 h after treatment. Acetamiprid was adopted as a positive control, and a 0.1% Tween-80 aqueous solution was adopted as a negative control. and the results are shown in Table 1.

The test system of assay [2] is Aphis citricola. Put plainly: slide-dip mortality and LC50 test on aphids (Aphis citricola). The note with it: for mortality at 50 µg/mL / mortality at 75 µg/mL: 24 h, read-out: Corrected mortality (%) Aphis citricola; for LC50: read-out: LC50 of inhibitory activity against Aphis citricola. The method, then: as §1
Assay [3] deals with Brevicoryne brassicae. Put plainly: slide-dip mortality test on aphids (Brevicoryne brassicae). The note with it: 24 h, read-out: Corrected mortality (%) Brevicoryne brassicae. How it is done:
as §1

Assay [4] concerns wheat aphids. Put plainly: slide-dip mortality test on aphids (wheat aphids). Particulars: 24 h, read-out: Corrected mortality (%) Wheat aphid. How it is done: as §1
Assay [5] relates to Tetranychus truncatus. Put plainly: slide dipping mortality test on mites. Particulars: slide dipping, process as for aphids, read-out: Corrected mortality (%) Tetranychus truncatus; for mortality at 50 µg/mL: 50 μg/mL; for mortality at 75 µg/mL: 75 μg/mL. How it is done: as §1
The inhibitory activities of the steroidal piperidone derivatives listed in Table 3 on Tetranychus truncatus were tested through slide dipping.

Assay [6] relates to Bemisia tabaci. Put plainly: foliar spray test on cucumber leaf against B. tabaci. Particulars: 168 h, read-out: Corrected mortality (%) B. tabaci. The method, then: (§2) The toxic activities of the steroidal piperidone derivatives listed in Table 4 against B. tabaci were tested by a foliar spray method. Specific process: A specified amount of a compound to be tested was accurately weighed and dissolved in acetone, and solutions with concentrations of 50 μg/mL and 75 μg/mL were each prepared with a 0.1% of Tween 80 aqueous solution and stored for later use. The pesticide solution was sprayed on the back side of a cucumber leaf, the cucumber leaf was naturally dried, and B. tabaci to be tested were placed on the cucumber leaf. Thiamethoxam was used as a positive control, and acetone was used as a negative control. Several deaths were observed after 7 d of treatment, and the corrected mortality was calculated.

The subject of assay [7] is rice planthoppers. The assay can be described thus: foliar spray test against rice planthoppers. Particulars: 72 h, read-out: Corrected mortality (%) rice planthoppers. The method, then:
as §2
The toxic activities of the steroidal piperidone derivatives listed in Table 5 against rice planthoppers were tested by a foliar spray method. Imidacloprid was used as a positive control, and acetone was used as a negative control. Several deaths were observed after 3 d of treatment, and the corrected mortality was calculated.

In brackets after ≈: the same amount, converted by molar mass.

`Cc1ccccc1C(=O)N1C(=O)CC[C@H]2[C@@H]3CC=C4C[C@@H](O)CC[C@]4(C)[C@H]3CC[C@@]21C` [Compound (2)-7]: the mortality (as a rule, the percentage killed) at 50 µg/mL in assay [1] turned out to be 93.2%; in assay [2], 92.1%; in assay [3], 94.4%; in assay [4], 96%; in assay [5], 66.8%; in assay [6] it was 76.3%. Moreover, the mortality at 50 µg/mL in assay [7] was 64.2%. Also, the mortality at 75 µg/mL in assay [1] was 100%; in assay [2], 100%; in assay [3] it was 100%; in assay [4], 100%; in assay [5], 88.5%; in assay [6], 88.5%. Further, in assay [7], the mortality at 75 µg/mL is 79.2%. The LC50 (commonly the concentration that kills 50% of the test population) in assay [2] came to 10.3 mg/L (≈ 24.4 µM).

For the compound `C[C@]12CC[C@H](O)CC1=CC[C@@H]1[C@@H]2CC[C@@]2(C)[C@H]1CCC(=O)N2C(=O)c1ccc(C(F)(F)F)cc1` [Compound (2)-12], the mortality at 50 µg/mL in assay [1] amounted to 59.1%; in assay [2], 60.7%; in assay [3] it was 61.8%; in assay [4], 65%; in assay [5], 33.8%; in assay [6] it was 47.5%. For the same compound, in assay [7], the mortality at 50 µg/mL was determined as 54%. Also, the mortality at 75 µg/mL came to 79.8% in assay [1]; 83% in assay [2]; 82.8% in assay [3]; 84.3% in assay [4]; 55.5% in assay [5]; 58.6% in assay [6]. Also, the mortality at 75 µg/mL in assay [7] worked out at 63%. Further, in assay [2], the 50% lethal concentration (LC50) is 21.9 mg/L (≈ 46.1 µM).

On to `Cc1ccc(C(=O)N2C(=O)CC[C@H]3[C@@H]4CC=C5C[C@@H](O)CC[C@]5(C)[C@H]4CC[C@@]32C)cc1` [Compound (2)-9], for which the mortality at 50 µg/mL in assay [1] is 80.7%; in assay [2], 88.8%; in assay [3], 78.7%; in assay [4] it was 85.5%; in assay [5] it was 55.2%; in assay [6], 63.4%. Besides, in assay [7], the mortality at 50 µg/mL came out at 59.6%. Also, the mortality at 75 µg/mL in assay [1] turned out to be 100%; in assay [2], 100%; in assay [3] it was 100%; in assay [4], 100%; in assay [5] it was 77.5%; in assay [6], 75.9%. Besides, the mortality at 75 µg/mL in assay [7] stood at 66.2%. In addition, the median lethal concentration (LC50) in assay [2] is 14.2 mg/L (≈ 33.7 µM).

With `C[C@]12CC[C@H](O)CC1CC[C@@H]1[C@@H]2CC[C@@]2(C)[C@H]1CCC(=O)N2C(=O)c1ccc(F)cc1` (some centres unmarked) [Compound (1)-3], the mortality at 50 µg/mL in assay [1] stood at 69.3%; in assay [2] it was 66.3%; in assay [3], 64%; in assay [4], 70.5%; in assay [5], 54.3%; in assay [6], 67.7%. Also, in assay [7], the mortality at 50 µg/mL came to 63.3%. Besides, the mortality at 75 µg/mL in assay [1] is 89.9%; in assay [2], 85.2%; in assay [3], 82.8%; in assay [4] it was 90%; in assay [5] it was 70.3%; in assay [6], 74.7%. Also, the mortality at 75 µg/mL in assay [7] was determined as 71.2%. In addition, the median lethal concentration (LC50) in assay [2] came to 24.6 mg/L (≈ 57.5 µM).

For the compound `Cc1cccc(C(=O)N2C(=O)CC[C@H]3[C@@H]4CC=C5C[C@@H](O)CC[C@]5(C)[C@H]4CC[C@@]32C)c1` [Compound (2)-8], the mortality at 50 µg/mL turned out to be 43.2% in assay [1]; 48.3% in assay [2]; 51.7% in assay [3]; 54.9% in assay [4]; 30.3% in assay [5]; 31.8% in assay [6]. Further, in assay [7], the mortality at 50 µg/mL is 41.9%. Besides, the mortality at 75 µg/mL worked out at 69.7% in assay [1]; 70.5% in assay [2]; 70.1% in assay [3]; 73.3% in assay [4]; 54.4% in assay [5]; 56.3% in assay [6]. For the same compound, in assay [7], the mortality at 75 µg/mL is 52.4%.

Source of the values: patent US11751567B2, “Steroidal piperidone derivative, synthesis method, and use thereof” (NORTHWEST A&F UNIVERSITY, priority 2021, dated 2023).
